Values quoted from earlier work, collected in article PMC3616063, “Genomic and Structural Characterization of Kunitz-Type Peptide LmKTT-1a Highlights Diversity and Evolution of Scorpion Potassium Channel Toxins” (PLoS ONE, 2013).

Tests used:
[1] = tested on: SKCa channels; details: ref [9]
Text: (§1) Over the last 400 million years, scorpions have evolved many peptide toxins that target different potassium channels. Numerous potassium channel toxins have been isolated from scorpions including those identified by proteomic and transcriptome analysis of scorpion venom glands [2]–[4]. These toxins are divided into α-KTx, β-KTx, γ-KTx, and κ-KTx subfamilies based on their similarity, [6]. Some of the toxins are specific inhibitors that serve as useful pharmacological tools and candidate drugs that target various potassium channels. Examples include charybdotoxin (ChTX), ...

[2] = tested on: BKCa channels; details: ref [8]
Text: as §1

[3] = tested on: Kv1.3; details: ref [8]
Text: as §1

[4] = tested on: Herg channels; details: ref [11]
Text: as §1

[5] = tested on: IKCa channels; details: ref [10]
Text: as §1

Substance: scyllatoxin (AFCNLRMCQLSCRSLGLLGKCIGDKCECVKH; UniProt P16341 1-31, looked up) [scyllatoxin (ScyTx)]
- SKCa channel inhibition [1]: inhibits SKCa channels

Substance: charybdotoxin [charybdotoxin (ChTX)]
- BKCa channel targeting [2]: targeted toward Kv1.3 and BKCa channels
- Kv1.3 channel targeting [3]: targeted toward Kv1.3

Substance: BeKm-1: scorpion toxin which inhibits Herg channels (RPTDIKCSESYQCFPVCKSRFGKTNGRCVNGFCDCF; UniProt Q9BKB7 22-57, looked up)
- Herg channel inhibition [4]: inhibits Herg channels

Substance: maurotoxin (VSCTGSKDCYAPCRKQTGCPNAKCINKSCKCYGC; UniProt P80719 1-34, looked up) [maurotoxin (MTX)]
- IKCa channel targeting [5]: targeted toward IKCa channels
